PMC8577999 (Slas Discovery, 2021)
Where “and” joins values, the source holds several entries; their conditions need not be identical. Equal values may be shown once. Where a name gives a salt, the structure may show the parent alone. Square brackets hold non-standard residues; d marks the D form. Peptide text beside a SMILES is read from it. Nle = CCCC[C@H](N)C(=O)O

Tests used:
[1] = system: SARS-CoV-2 (USA-WA1/2020 isolate); type: cell-based
[2] = system: MLV reporter luciferase virus pseudotyped with the SARS-CoV-2 Spike protein (SARS2-S)
SARS-CoV-2 = type: cell-based
SARS2-S = assay: microbe, parasite or virus in culture; type: cell-based, SARS-CoV-2; details: Severe acute respiratory syndrome coronavirus 2, read-out: SARS2-S IC50
VSV-G = assay: microbe, parasite or virus in culture; type: cell-based; details: Vesicular stomatitis virus, read-out: VSV-G IC50
SARS1-S = assay: microbe, parasite or virus in culture; type: cell-based, SARS-CoV-1
SARS2-S WT = assay: microbe, parasite or virus in culture; type: cell-based, SARS-CoV-2; details: Severe acute respiratory syndrome coronavirus 2, read-out: WT IC50
[3] = system: main viral protease (MPRO); details: read-out: MPRO IC50; cited from earlier work

In the case of `CN(C)C(=O)COC(=O)Cc1ccc(OC(=O)c2ccc(NC(=N)N)cc2)cc1` [Camostat mesylate, reference compound], the “activity against wild type SARS-CoV-2 (CPE)” value [1] is reported as “did not shown any activity”.

With `CCCC[C@@H](C=O)NC(=O)[C@H](CC(C)C)NC(=O)[C@H](CC(C)C)NC(C)=O` [SR-372, calpain inhibitor I] (Ac-Leu-Leu-[Nle]-aldehyde) the “higher potency as compared to the best ReFRAME hit, SR-806 (VBY-825)” value [2] was 3.5 fold, the “higher specificity as compared to the best ReFRAME hit, SR-806 (VBY-825)” value [2] was > 3 fold and the “therapeutic index (TI=CC50/IC50)” value [2] was “greater than 100”.

For `CCCC[C@@H](C=O)NC(=O)[C@H](CC(C)C)NC(=O)OCc1ccccc1` [SR-914, calpeptin], the EC50 ([1]; read-out: EC50, SARS-CoV-2-induced CPE assay) was 174 nM and 163 nM, the “activity in plaque assays of wild type SARS-CoV-2 infection” value (SARS-CoV-2) was “further confirmed” and the IC50 (SARS2-S) was 10.9 ± 0.78 nM. For the same compound, the IC50 (VSV-G) was > 20000 nM, the “less potent against SARS1-S than against SARS2-S” value (SARS1-S) was ~8 fold and the IC50 (SARS1-S; Severe acute respiratory syndrome coronavirus, read-out: SARS1-S IC50) was 77.2 ± 4.69 nM. For the same compound, the IC50 (SARS2-S WT) was 3.78 nM, the “higher potency as compared to the best ReFRAME hit, SR-806 (VBY-825)” value [2] was 7.1 fold and the “higher specificity as compared to the best ReFRAME hit, SR-806 (VBY-825)” value [2] was “higher than 7.1 fold”. For the same compound, the “therapeutic index (TI=CC50/IC50)” value [2] was “greater than 100” and the IC50 [3] was 10400 nM.
